Source: patent US20230190761A1, “METHYLENE BLUE STABILIZED MRNA COMPOSITIONS” (ModernaTX, Inc., priority 2020, published 2023)
Counter-ions that a name gives are not always drawn.

Key:
Format in all cases: physicochemical
[1] = test system: mRNA within LNP formulations; experiment: Screen of molecular dyes on mRNA stability within LNP formulations (RP-HPLC); settings: for Main Peak Purity after 4 days at 40° C. (%): 2 mM dye in mRNA-LNP, RP-HPLC, no value (—) = physically unstable, no reliable chromatographic result, interpreted as destabilizing; for Difference relative to No Dye: main peak purity, ±4% interpreted as significant; for Difference relative to No Dye / stabilization effect on mRNA in LNP: 2 mM dye, 4 days at 40° C.
Description: This example discusses the effects of various dye molecules on mRNA stability within LNP formulations. To evaluate the potential stabilization effects of dyes, LNP compositions were prepared containing 2 mM of one of 25 dyes. After incubation for 4 days at 40° C., main peak mRNA purity was measured by RP-HPLC. Variance within this study was estimated from three independent sample replicates with no dye (Sample IDs D0a, D0b and D0c as shown in Table 4) or with 2 mM methylene blue (Sample IDs D1a, D1b and D1c as shown in Table 4). […] The main peak purity measured in each mRNA-LNP formulation, as well as its difference relative to the no dye controls is shown in Table 4. Positive differences relative to no dye represent improvements in mRNA stability, and negative differences represent worsened mRNA stability.

[2] = test system: lipid nanoparticles (LNP); experiment: Permeation of phenothiazinium dyes into LNP and binding to encapsulated mRNA; settings: optical spectroscopic studies, Cryo-EM, DLS, isothermal titration calorimetry
Excerpt: This example describes phenothiazinium dyes which interact with mRNA and their impact on LNP formulations. […] These interpretations were made based on extensive optical spectroscopic studies, Cryo-EM, dynamic light scattering (DLS) and isothermal titration calorimetry studies.

[3] = test system: mRNA-LNP; experiment: Conventional antioxidants versus methylene blue on mRNA-LNP stability; settings: 2 mM KDS, 5 mM KDS or 5 mM methionine, presence or absence of 2 mM methylene blue
Description: This example discusses the effects of conventional pharmaceutical antioxidants on mRNA stability. To evaluate the effects conventional pharmaceutical antioxidants might have on mRNA stability relative to methylene blue, a direct comparative study was performed between methionine, potassium metabisulfite (KDS) and methylene blue. mRNA purity was measured after incubation of mRNA-LNP compositions with no additive, or with 2 mM KDS, 5 mM KDS, or 5 mM methionine, in the presence or absence of 2 mM methylene blue.

Molecule	Main Peak Purity after 4 days at 40° C. (%) [1]	Difference relative to No Dye [1]	permeation of lipid nanoparticles and binding to encapsulated mRNA [2]	stabilization effect on mRNA in LNP [1]	stabilization effect on mRNA purity [3]
O=[N+]([O-])[O-].[Ag+] [Silver nitrate (0.1 N), Silver nitrate]	77.90%	3%			
CNc1ccc2nc3ccc(=[N+](C)C)cc-3sc2c1 [Azure B]	90.16%	15%	can permeate lipid nanoparticles (LNP) and bind to encapsulated mRNA without altering the gross structure of the LNP	stabilization effects similar to that of methylene blue	
Oc1cc2c(cc1O)[C@@H]1c3ccc(O)c(O)c3OC[C@]1(O)C2 [Hematoxylin]	39.82%	−35%			
CN(C)c1ccc2cc3ccc(N(C)C)cc3nc2c1 [Acridine Orange hydrochloride hydrate]	69.92%	−5%			
CSCC[C@H](N)C(=O)O [methionine]					Neither KDS nor methionine showed any stabilization effect
CN(C)c1ccc(C(=C2C=CC(=[N+](C)C)C=C2)c2ccc(N(C)C)cc2)cc1 [Crystal Violet]	24.79%	−50%			
CN(C)c1ccc2nc3ccc(N)cc3[s+]c2c1 [Azure A chloride]	90.36%	15%	can permeate lipid nanoparticles (LNP) and bind to encapsulated mRNA without altering the gross structure of the LNP	stabilization effects similar to that of methylene blue	
Cc1c(C(=O)O)c(O)cc2c1C(=O)c1c(O)c(C3O[C@H](CO)[C@@H](O)[C@H](O)[C@H]3O)c(O)c(O)c1C2=O (stereo in doubt) [Carmine]	74.27%	−1%			
O=S([O-])S(=O)(=O)[O-].[K+].[K+] [KDS, potassium metabisulfite]					Neither KDS nor methionine showed any stabilization effect
Bromophenol Blue sodium salt	35.53%	−39%			

The next lines start with results.

Main Peak Purity after 4 days at 40° C. (%) [1]	Difference relative to No Dye [1]	Molecule	permeation of lipid nanoparticles and binding to encapsulated mRNA [2]	stabilization effect on mRNA in LNP [1]	stabilization effect on mRNA purity [3]
77.56%	3%	CCN(CC)c1ccc2nc3c4ccccc4c(=O)cc-3oc2c1 [Nile Red]			
74.66%	0%	Cc1cc2nc3ccc(N(C)C)cc3[s+]c2cc1N [Toluidine Blue O]			
59.34%	−16%	Cc1cc2nc3ccc(=[N+](C)C)cc-3[nH]c2cc1N [Neutral Red]			
70.75%	−4%	CCN(CC)c1ccc2nc3c4ccccc4c(=N)cc-3oc2c1 [Nile Blue A]			
68.61%	−6%	CCNc1cc2[s+]c3cc(NCC)c(C)cc3nc2cc1C [New methylene blue N]			
68.68%	−6%	CN(C)c1ccc2cc3ccc(=[N+](C)C)cc-3oc2c1.[Cl-] [Pyronin Y]			
89.46%	14%	Leucomethylene Blue (mesylate)		stabilization effects similar to that of methylene blue	
78.00%	3%	O=C(O)c1ccccc1-c1c2cc([N+](=O)[O-])c(=O)c(Br)c-2oc2c(Br)c(O)c([N+](=O)[O-])cc12 [Eosin B]			
89.14%	14%	Cc1cc2nc3cc(C)c(N)cc3[n+](-c3ccccc3)c2cc1N [Safranin O]		stabilization effects similar to that of methylene blue	
